Key:
[1] = tested on: NMDA receptors expressed in Xenopus laevis oocytes; assay: Two electrode voltage-clamp electrophysiology of NMDA receptors in oocytes; assay type: cell-based; settings: 300 µM final concentration; data not shown
Description: (§1) While mTORC1 activation by NV-5138 appears dependent upon an intact Sestrins/GATOR2 pathway and not upon protein incorporation or transamination by BCAT, NV-5138 was tested for off-target activity in the Eurofins/Cerep panel of over 100 potential targets. The selectivity panel included AMPA, kainate and NMDA receptor isoforms (Supplementary Table 2a–c). […] As observed in the Eurofins/Cerep panel, there was no effect of NV-5138 at 300 µM final concentration (data not shown).

[2] = tested on: panel of 107 adverse drug effect targets; assay: Eurofins/Cerep off-target selectivity panel; settings: up to 300 µM; threshold >50% binding/response; incl. AMPA, kainate and NMDA receptor isoforms
Description: as §1
NV-5138 was tested in duplicate at a concentration of 300 µM for potential interaction with a panel of 107 adverse drug effect targets including 21 transporters, receptors, ion channels and enzymes expressed in the CNS (Eurofins Pharma Discovery Services). The threshold to exclude a significant interaction was set as a binding/response of >50%.

[3] = molecular target: T1, Sestrin2/GATOR2 interaction (Homo sapiens, UniProt P58004); assay: Sestrin2/GATOR2 interaction in intact flag-WDR24 HEK-293T cells; assay type: cell-based; settings: leucine-starved 50 min, compound 10 min
T1 construct: expressed in transfected cells; host or cells: HEK-293T stably expressing Flag-WDR24; Sestrin2 and the other GATOR2 subunits endogenous
T1 sequence (P58004 1-480): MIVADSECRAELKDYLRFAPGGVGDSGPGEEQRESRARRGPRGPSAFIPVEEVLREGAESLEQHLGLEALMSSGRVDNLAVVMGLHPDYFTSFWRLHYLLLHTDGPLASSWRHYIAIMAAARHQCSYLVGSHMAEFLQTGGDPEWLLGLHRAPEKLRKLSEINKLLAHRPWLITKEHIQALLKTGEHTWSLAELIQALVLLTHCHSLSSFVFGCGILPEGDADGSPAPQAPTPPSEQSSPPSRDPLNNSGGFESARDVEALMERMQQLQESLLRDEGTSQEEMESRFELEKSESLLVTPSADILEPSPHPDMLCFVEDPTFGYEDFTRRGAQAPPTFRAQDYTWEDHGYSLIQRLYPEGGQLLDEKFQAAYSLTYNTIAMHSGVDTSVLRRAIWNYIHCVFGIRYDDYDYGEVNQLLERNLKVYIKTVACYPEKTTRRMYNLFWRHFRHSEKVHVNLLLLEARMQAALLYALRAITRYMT
Description: (§2) Expression of flag-WDR24 allows for immunoprecipitation of the Sestrin2/GATOR2 complex from amino acid-starved cells with an anti-flag antibody. […] Finally, to determine whether Sestrins and the GATOR pathway are required for NV-5138 activity, HEK-293T cells null for all three Sestrin isoforms or the GATOR1 component Nprl3 were obtained.
All cell lines were cultured in DMEM supplemented with 10% FBS and maintained at 37 °C and 5% CO2. HEK-293T cells stably expressing Flag-WDR24 was generated as previously described. […] Details of reagent used for cell culture can be found in Supplementary Information.
(§3) Cell lysates were prepared as previously described. Lysates were cleared by centrifugation at 13,200 rpm at 4 °C for 8 min. For anti-FLAG IPs, the FLAG-M2 affinity gel was added to approximately 2 mg of lysates and incubated with rotation for 3 h at 4 °C. Following IP, the beads were washed one time with Triton wash buffer containing 500 mM NaCl. […] After compound incubation, IPs were collected by centrifugation. Immunoprecipitated proteins were denatured and, resolved by SDS-PAGE. Membranes were imaged using the LI-COR imaging system. Reagents and antibodies used are listed in Supplementary Information.

[4] = tested on: Synapsin1, GluR1 and PSD95; assay: Synaptic proteins in rat prefrontal cortex synaptoneurosomes (immunoblot); assay type: in vivo; settings: 24 h after single 160 mg/kg PO
Description: We investigated the activation of mTORC1 in the brain further by determining the time course of mTORC1 activation following a single administration of NV-5138. […] The decrease in mTORC1 signaling in the NV-5138 treated group 24 h following administration while significant was not consistently observed. […] It should be noted that while the activation of mTORC1 in the prefrontal cortex correlated with compound exposure, the increased expression of synaptic proteins was observed well after compound levels have dropped and mTORC1 activity was back to baseline/vehicle levels.
After compound administration, animals were sacrificed by decapitation using a guillotine, immediately Specific regions of the brain were quickly microdissected, tissues collected, and flash frozen in liquid nitrogen. Peripheral tissues and all brain were homogenized using MP homogenizer in Lysis Buffer (Cell lysis buffer: 1% Triton X-100, 50 mM HEPES pH 7.4, 100 mM NaCl, 2 mM EDTA, 10 mM Beta-glycerophosphate, 10 mM Sodium pyrophosphate, and 1 protease inhibitor) at 4 °C. Synaptic proteins and mTORC1 analyses in each brain region were conducted on crude synaptoneurosome preparations as previously described. Equal amounts of total protein from each sample were denatured and, resolved by SDS-PAGE. Membranes were imaged using the LI-COR imaging system. […]

[5] = molecular target: T1, Sestrin2/GATOR2 interaction; assay: Cell-free Sesn2/WDR24 (GATOR2) interaction assay on immunoprecipitates; assay type: biochemical; settings: added to immunoprecipitated complexes from amino acid-starved cells for 10 min
Description: as §2, §3

[6] = Pharmacokinetic analysis in rats; assay type: in vivo, rat
Description: To determine oral bioavailability, male SD rats were dosed I.V at 1 mg/kg and PO at 5 mg/kg with NV-5138 in 0.5% MC/0. 1% Tween80 (n = 3 per time point per group). Rats were fasted overnight for PO group and were given free access to food and water for IV group. After dosing, tail-vein blood was collected at the indicated time points into K2EDTA tubes and centrifuged at 2,000 g for 5 min to collect plasma. To measure levels of NV-5138 in the brain and plasma, rats were dosed PO at 160 mg/kg (n = 5), sacrificed 1 h after dosing via decapitation and trunk blood and one hemisphere of the brain was collected. Plasma was combined with acetonitrile containing pregabalin as an internal standard and centrifuged, brain and heart samples were homogenized directly into acetonitrile. Levels of NV-5138 were quantified via LC-MS/MS. WinNonlin V 6.2 statistics software (Pharsight Corporation, California, USA) was used to generate pharmacokinetics parameters using non-compartmental model.

[7] = cited from earlier work

Row | bioavailability ([6]; male, SD, rat, plasma, oral, 5 mg/kg, male SD rats, IV 1 mg/kg and PO 5 mg/kg) | half-life ([6]; male, SD, rat, plasma, other: intravenous and oral, rats, intravenous and oral dosing, read-out: elimination half-life in plasma (converted)) | SMILES | functional inhibition of maximally-activated NMDA receptors [1] | off-target activity in selectivity panel [2] | disruption of GATOR2-bound Sestrin2 in intact cells [3] | synaptic proteins Synapsin1, GluR1 and PSD95 versus vehicle [4] | disruption of Sestrin2/GATOR2 interaction, cell-free [5] | brain versus plasma exposure ([6]; rats, 160 mg/kg PO, 160 mg/kg) | cerebrospinal fluid (CSF) levels as fraction of plasma concentrations [7]
1 | 100% | ~3 h | CC(C)(C[C@H](N)C(=O)O)C(F)F [NV-5138, (S)-2-amino-5,5-difluoro-4,4-dimethylpentanoic acid] | no effect | no activity against any target | resulted in disruption of GATOR2-bound Sestrin2 | significant increase | rapidly disrupts the Sestrin2/GATOR2 interaction in a dose-dependent manner | brain and plasma concentrations of NV-5138 are equal | 
2 |  |  | CC(C)C[C@H](N)C(=O)O [Leucine, L-leucine, reference compound] |  |  |  |  |  |  | 5–10%

Source: publication PMC6412019, “Discovery of NV-5138, the first selective Brain mTORC1 activator” (Scientific Reports, 2019)
